# From patent US12577247B2 (BUGWORKS RESEARCH, INC., priority 2021, dated 2026)
# Columns and labels:
# A2A receptor = biological target: T1, A2A receptor (Homo sapiens, UniProt P29274); assay: A2aR antagonism IC50, cAMP TR-FRET (Lance Ultra) in HEK-293 cells, NECA as agonist; format: cell-based; conditions: A2AR IC50 (nM) (@5 nM NECA), HEK-293 cells expressing A2A receptor; agonist NECA 5 nM (EC90); inhibition of cAMP;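 also: compounds tested from 10 µM down to 0.08 nM in buffer with Rolipram at room temperature, TR-FRET cAMP signal read 1 h after adding Eu-cAMP tracer and ULight anti-cAMP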
# T1 construct: host or cells: HEK-293
# Description: (§1) Adenosine A2A receptors and Adenosine A2B receptors induce the production of cAMP when activated/stimulated by an agonist like adenosine or 5′-(N-Ethylcarboxamido) adenosine (NECA). A Time-Resolved Fluorescence Energy Transfer (TR-FRET) assay was used to show the inhibition of this cAMP production in HEK cells upon treatment with compounds of the Formula I of the present disclosure.
# (§2) HEK-293 cells expressing A2A receptor (#ES-011-C) or A2B receptor (#ES 013-C) were obtained from PerkinElmer. Cells were maintained in DMEM medium supplemented with 10% FBS and 200 μg/mL of G418 at 37° C. and 5% CO2. The cells were cultured in antibiotic free medium for a period of 16-20 hours prior to the assay. All subsequent steps of the assay are performed at room temperature (22-24° C.). The cells were harvested at about 80% confluency by gentle flushing with PBS, recovered by centrifugation and resuspended in stimulation buffer at the concentration of 5.0×10^6 cells/mL.
# (§3) The assays were conducted in a stimulation buffer containing 1×DMEM, 5 mM HEPES, 0.1% BSA stabilizer and 20-30 μM Rolipram. Serial dilutions of compounds were made in stimulation buffer to achieve a final concentration of high micromolar (10 μM to 0.08 nM) in the reaction volume of 10 μL. The total reaction volume was 10 μL (5 μL of cells, 2.5 μL of antagonist and 2.5 μL of agonist). The stimulation was ended, and the reaction completed by adding 5 μL of 4× Eu-cAMP tracer working solution and 5 μL of 4× ULight-anti-cAMP working solution. The TR-FRET signal was measured after 1-hour incubation using a Tecan M1000 reader.
# A2B receptor = biological target: T2, A2B receptor (Homo sapiens, UniProt P29275); assay: A2bR antagonism IC50, cAMP TR-FRET (Lance Ultra) in HEK-293 cells, NECA as agonist; format: cell-based; design: host or cells: HEK-293; conditions: HEK-293 cells expressing A2B receptor; agonist NECA 30 nM (EC90); inhibition of cAMP
# T2 sequence (P29275 1-332): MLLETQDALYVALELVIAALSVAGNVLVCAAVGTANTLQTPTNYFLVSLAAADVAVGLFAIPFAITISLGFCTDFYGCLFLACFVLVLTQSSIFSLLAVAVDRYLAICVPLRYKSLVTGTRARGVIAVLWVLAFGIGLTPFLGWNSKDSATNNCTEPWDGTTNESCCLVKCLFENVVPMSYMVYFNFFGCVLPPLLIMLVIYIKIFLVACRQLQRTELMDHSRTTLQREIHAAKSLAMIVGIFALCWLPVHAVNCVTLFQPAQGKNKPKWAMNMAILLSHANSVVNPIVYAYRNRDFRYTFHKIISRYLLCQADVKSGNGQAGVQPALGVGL
# Description: as §1, §2, §3
# T1 sequence (P29274 whole entry): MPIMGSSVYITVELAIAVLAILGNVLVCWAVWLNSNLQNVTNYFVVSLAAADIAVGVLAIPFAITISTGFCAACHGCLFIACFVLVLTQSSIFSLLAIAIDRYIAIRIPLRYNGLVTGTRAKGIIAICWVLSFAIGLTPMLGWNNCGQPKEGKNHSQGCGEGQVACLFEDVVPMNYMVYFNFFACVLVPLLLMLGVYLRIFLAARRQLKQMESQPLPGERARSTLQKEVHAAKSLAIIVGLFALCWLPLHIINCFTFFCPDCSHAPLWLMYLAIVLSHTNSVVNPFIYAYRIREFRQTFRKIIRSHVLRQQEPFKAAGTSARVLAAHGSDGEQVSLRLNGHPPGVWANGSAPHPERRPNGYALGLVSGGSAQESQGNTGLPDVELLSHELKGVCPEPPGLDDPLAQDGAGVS
SMILES,IC50 (A2A receptor) [nM],IC50 (A2B receptor) [nM]
"Cc1cccc(C(C)Nc2nc3c(C)c(C)nn3c(N)c2C#N)n1 (stereo not shown) [Example 1, 7-amino-2,3-dimethyl-5-{[1-(6-methylpyridin-2-yl)ethyl]amino}pyrazolo[1,5-a]pyrimidine-6-carbonitrile]",10,1330
"Cc1cccc([C@H](C)Nc2nc3c(C)c(C)nn3c(N)c2C#N)n1 [Example 2, 7-amino-2,3-dimethyl-5-{[(1S)-1-(6-methylpyridin-2-yl)ethyl]amino}pyrazolo [1,5-a]pyrimidine-6-carbonitrile]",2,547
"CCc1c(C)nn2c(N)c(C#N)c(N[C@H](C)c3ccccn3)nc12 [Example 3, (R)-7-Amino-3-ethyl-2-methyl-5-((1-(pyridin-2-yl)ethyl)amino) pyrazolo[1,5-a] pyrimidine-6-carbonitrile]",1010,> 3000
"CCc1c(C)nn2c(N)c(C#N)c(N[C@@H](C)c3ccccn3)nc12 [Example 4, (S)-7-Amino-3-ethyl-2-methyl-5-((1-(pyridin-2-yl)ethyl)amino) pyrazolo[1,5-a] pyrimidine-6-carbonitrile]",25,1370
"CCc1c(C)nn2c(N)c(C#N)c(N[C@@H](C)c3cccc(C)n3)nc12 [Example 5, (S)-7-Amino-3-ethyl-2-methyl-5-((1-(6-methylpyridin-2-yl)ethyl)amino) pyrazolo [1,5-a] pyrimidine-6-carbonitrile]",0.15,0.87
"Cc1cccc(CNc2nc3c(C)c(C)nn3c(N)c2C#N)n1 [Example 6, 7-amino-2,3-dimethyl-5-{[(6-methylpyridin-2-yl)methyl]amino}pyrazolo[1,5-a] pyrimidine-6-carbonitrile]",6.6,> 3000
"Cc1cccc(CN(C)c2nc3c(C)c(C)nn3c(N)c2C#N)n1 [Example 8, 7-amino-2,3-dimethyl-5-{methyl[(6-methylpyridin-2-yl)methyl]amino}pyrazolo [1,5-a] pyrimidine-6-carbonitrile]",46,1680
"Cc1ccc(CCNc2nc3c(C)c(C)nn3c(N)c2C#N)nc1 [Example 10, 7-Amino-2,3-dimethyl-5-((2-(5-methylpyridin-2-yl)ethyl)amino) pyrazolo[1,5-a] pyrimidine-6-carbonitrile]",2.3,41
"Cc1nn2c(N)c(C#N)c(NCCc3ccc(F)cn3)nc2c1C [Example 11, 7-amino-5-((2-(5-fluoropyridin-2-yl)ethyl)amino)-2,3-dimethylpyrazolo[1,5-a]pyrimidine-6-carbonitrile]",6.8,43
"CCc1c(C)nn2c(N)c(C#N)c(NCCc3ccc(C)cn3)nc12 [Example 18, 7-Amino-3-ethyl-2-methyl-5-((2-(5-methylpyridin-2-yl)ethyl)amino) pyrazolo[1,5-a]pyrimidine-6-carbonitrile]",5.5,9.5
"CCc1c(C)nn2c(N)c(C#N)c(NCCc3ccc(OC)cn3)nc12 [Example 19, 7-Amino-3-ethyl-5-((2-(5-methoxypyridin-2-yl)ethyl)amino)-2-methylpyrazolo [1,5-a]pyrimidine-6-carbonitrile]",2.1,36
"CCc1c(C)nn2c(N)c(C#N)c(NCCc3ccc(F)cn3)nc12 [Example 21, 7-Amino-3-ethyl-5-((2-(5-fluoropyridin-2-yl)ethyl)amino)-2-methylpyrazolo[1,5-a]pyrimidine-6-carbonitrile]",3.9,13
"Cc1cccc(CCNc2nc3c(CC4CC4)c(C)nn3c(N)c2C#N)n1 [Example 26, 7-amino-3-(cyclopropylmethyl)-2-methyl-5-((2-(6-methylpyridin-2-yl)ethyl)amino) pyrazolo[1,5-a]pyrimidine-6-carbonitrile]",2.9,0.83
"CCn1ccc(CCNc2nc3c(C)c(C)nn3c(N)c2C#N)n1 [Example 29, 7-amino-5-{[2-(1-ethyl-1H-pyrazol-3-yl)ethyl]amino}-2,3-dimethylpyrazolo[1,5-a]pyrimidine-6-carbonitrile]",1,18
"Cc1nn2c(N)c(C#N)c(NCCc3ccn(C(C)(C)CO)n3)nc2c1C [Example 31, 7-amino-5-({2-[1-(1-hydroxy-2-methylpropan-2-yl)-1H-pyrazol-3-yl]ethyl}amino)-2,3-dimethylpyrazolo[1,5-a]pyrimidine-6-carbonitrile]",0.73,51
Cc1nn2c(N)c(C#N)c(NCCc3ccn(CCO)n3)nc2c1Cl [Example 35],0.92,16
"Cc1ccc(F)c(CCNc2nc3c(C)c(C)nn3c(N)c2C#N)n1 [Example 41, 7-amino-5-((2-(3-fluoro-6-methylpyridin-2-yl)ethyl)amino)-2,3-dimethylpyrazolo[1,5-a]pyrimidine-6-carbonitrile]",0.88,73
"CCc1c(C)nn2c(N)c(C#N)c(NCCc3ccn(CCO)n3)nc12 [Example 54, 7-amino-3-ethyl-5-((2-(1-(2-hydroxyethyl)-1H-pyrazol-3-yl)ethyl)amino)-2-methylpyrazolo[1,5-a]pyrimidine-6-carbonitrile]",0.74,5
"CCc1c(C(F)F)nn2c(N)c(C#N)c(NCCc3cccc(CO)n3)nc12 [Example 56, 7-amino-2-(difluoromethyl)-3-ethyl-5-((2-(6-(hydroxymethyl)pyridine-2-yl)ethyl)amino) pyrazolo[1,5-a] pyrimidine-6-carbonitrile]",3.3,11
"Cc1nn2c(N)c(C#N)c(NCc3ccn(C(C)(C)CO)n3)nc2c1C [Example 57, 7-amino-5-(((1-(1-hydroxy-2-methylpropan-2-yl)-1H-pyrazol-3-yl)methyl)amino)-2,3-dimethylpyrazolo[1,5-a]pyrimidine-6-carbonitrile]",13,100
CCc1c(C)nn2c(N)c(C#N)c(NCCc3nn(C(C)(C)CO)cc3F)nc12 [Example 62],5,42
CCc1c(C)nn2c(N)c(C#N)c(NCCc3nc(C4(CO)CC4)cs3)nc12 [Example 66],5,21

# Now from value to compound:
IC50 (A2A receptor) [nM],IC50 (A2B receptor) [nM],SMILES
0.59,> 3000,"CCc1cccc(CNc2nc3c(C)c(C)nn3c(N)c2C#N)n1 [Example 7, 7-amino-5-{[(6-ethylpyridin-2-yl)methyl]amino}-2,3-dimethylpyrazolo[1,5-a] pyrimidine-6-carbonitrile]"
0.9,3.7,"COc1cccc(CCNc2nc3c(C)c(C)nn3c(N)c2C#N)n1 [Example 12, 7-amino-5-((2-(6-methoxypyridin-2-yl)ethyl)amino)-2,3-dimethylpyrazolo[1,5-a]pyrimidine-6-carbonitrile]"
2,53,"Cc1nn2c(N)c(C#N)c(NCCc3cccc(C(C)(C)O)n3)nc2c1C [Example 16, 7-amino-5-({2-[6-(2-hydroxypropan-2-yl)pyridin-2-yl]ethyl}amino)-2,3-dimethylpyrazolo[1,5-a]pyrimidine-6-carbonitrile]"
0.2,14,"CCc1c(C)nn2c(N)c(C#N)c(NCCc3cccc(C(C)(C)O)n3)nc12 [Example 25, 7-amino-3-ethyl-5-({2-[6-(2-hydroxypropan-2-yl)pyridin-2-yl]ethyl}amino)-2-methylpyrazolo[1,5-a]pyrimidine-6-carbonitrile]"
31,17,"Cc1cccc(CCNc2nc3c(C(C)C)c(C)nn3c(N)c2C#N)n1 [Example 28, 7-amino-3-(isopropyl)-2-methyl-5-((2-(6-methylpyridin-2-yl)ethyl)amino) pyrazolo[1,5-a]pyrimidine-6-carbonitrile]"
0.88,76,"CCc1nn2c(N)c(C#N)c(NCCc3cccc(C)n3)nc2c1C [Example 42, 7-amino-2-ethyl-3-methyl-5-((2-(6-methylpyridin-2-yl)ethyl)amino) pyrazolo[1,5-a]pyrimidine-6-carbonitrile]"
2.3,123,"CCc1nn2c(N)c(C#N)c(NCCc3cccc(C(C)(C)O)n3)nc2c1C [Example 43, 7-amino-2-ethyl-5-((2-(6-(2-hydroxypropan-2-yl)pyridin-2-yl)ethyl)amino)-3-methylpyrazolo[1,5-a]pyrimidine-6-carbonitrile]"
1.3,2.3,"Cc1nn2c(N)c(C#N)c(NCCc3cccc(CO)n3)nc2c1C [Example 44, 7-amino-5-((2-(6-(hydroxymethyl)pyridin-2-yl)ethyl)amino)-2,3-dimethylpyrazolo[1,5-a]pyrimidine-6-carbonitrile]"
0.54,29.3,"CCc1c(C)nn2c(N)c(C#N)c(NCCc3cccc(C(C)(C)CO)n3)nc12 [Example 52, 7-amino-3-ethyl-5-((2-(6-(1-hydroxy-2-methylpropan-2-yl)pyridin-2-yl)ethyl)amino)-2-methylpyrazolo[1,5-a] pyrimidine-6-carbonitrile]"
0.3,27,"Cc1nn2c(N)c(C#N)c(NCCc3cccc(C(C)(C)CO)n3)nc2c1C [Example 53, 7-amino-5-((2-(6-(1-hydroxy-2-methylpropan-2-yl)pyridine-2-yl)ethyl)amino)-2,3-dimethylpyrazolo[1,5-a]pyrimidine-6-carbonitrile]"
